Test results published in patent publication US20090162351A1, “Transdiscal administration of inhibitors of p38 MAP kinase” (DePuy Spine, Inc., priority 2007, published 2009).
Values after ≈ are worked out from the molar mass of the structure shown. Read-outs that look alike come from different tables or passages of the source.

Assays:
[1] = test system: cytokine-stimulated NO production in human ARC tissues; test: Human ARC tissues: NO production; assay type: cell-based
Protocol: (§1) Nitrate/Nitrite levels were measured using the Griess reaction (Green L. C. et al., “Analysis of Nitrate, Nitrite, and [15N]nitrate in Biological Fluids,” Anal. Biochem. 126: 131-138 (1982)) with a Nitrate/Nitrite Colorimetric Assay Kit (Cayman Chemicals), the contents of which are incorporated herein by reference. The assay involved a simple two-step process. The first step involved conversion of nitrate in 50 μl of culture medium to nitrite utilizing nitrate reductase in a reaction volume of 100 μl at room temperature for two hours. The second step involved the addition of 50 μl of both Griess Reagent 1 and 2, which converted nitrite into a deep purple azo compound in ten minutes. Photometric measurement of the absorbance at 540 or 550 nm due to this azo chromophore accurately determined nitrite concentration. This assay kit cannot be used for RPMI (Roswell Park Memorial Institute) derived tissue culture medium due to interference with the colorimetric reaction.
(§2) ® infliximab is a monoclonal antibody against human TNFα. To test whether […]® could modulate cytokine-stimulated responses in chondrocytes, human chondrocyte pellets were first tested for an optimal concentration for cytokine stimulation. Human ARC (i.e., ARCs generated using human chondrocytes) tissues were treated with various concentrations of either TNF or IL-1 for four and five days. The culture media was collected for measurement of GAG content as described above. Other assays were performed as described above. Cytokine dosage at 5 ng/ml and treatment for five days gave a reasonable treatment window, yet was not too challenging for compound efficacy (FIG. 4).
(§3) Human ARC tissues were then treated with various concentrations of […]® in the presence or absence of either 10 ng/ml of TNFα or 5 ng/ml of IL-1β for four or five days.
(§4) The efficacy of a monoclonal antibody (mAb) against human IL-6 in inhibition of proteoglycan degradation, NO production and PGE2 synthesis on human ARC tissues stimulated with IL-6 was also tested. […]

[2] = test system: human ARC tissues (human chondrocytes) stimulated with TNFα, IL-1β or IL-6 + IL-6SR; test: Human ARC tissues: GAG release; assay type: cell-based
Protocol: Glycosaminoglycan (GAG) levels in the culture media were determined by measuring the amount of polyanionic material reacting with 1,9-dimethylmethylene blue (DME) as detected by absorbance at 525 nm, using shark chondroitin sulfate as a standard. The DME blue dye-binding solution was prepared by dissolving 16 mg of DME blue in a solution containing 0.304% glycine, 0.23% sodium chloride (NaCl), 9.5 mM hydrochloric acid (HCl), pH=3.0 with absorbance at 525 equal to 0.31. Proteoglycans and proteoglycan metabolites in chondrocyte pellet were released by digesting the pellet with 125 μg/ml of papain in 0.1 M PBS, pH 6.0, 5 mM cysteine, 5 mM ethylene-diamine-tetra-acetic acid disodium salt (Na2EDTA) at 50° C. for overnight. Results are reported as either micrograms of GAG per milliliter or percent of total GAG released into culture medium.
as §2, §3
as §4, with “tested. Human ARC tissue were treated with 12.5, 25 and 250 ng/ml of IL-6 mAb diluted into chondrocyte stimulation medium.” for “tested.”

[3] = in vivo; cited from earlier work
[4] = test system: cytokine-stimulated PGE2 synthesis in human ARC tissues; test: Human ARC tissues: PGE2 synthesis; assay type: cell-based; conditions: for PGE2 Inhibition, Pellet Assay: TNFα stimulated responses
Protocol: (§5) Prostaglandin E2 (PGE2) was measured with a STAT-Prostaglandin E2 EIA ELISA kit (Cayman Biochemicals). This assay is based on the competition between PGE2 from 50 μl samples and a PGE2-alkaline phosphatase conjugate for a limited amount of PGE2 monoclonal antibody in a reaction volume of 150 μl at room temperature for one hour. The antibody-PGE2 complex bound to a goat polyclonal anti-mouse IgG that had been previously attached to the well. After washing to remove any unbound reagents, para-nitrophenyl phosphate (pNPP) was added to the well. The product of this enzymatic reaction absorbs strongly at 412 nm. Because of the large range in response to IL-1β and other cytokines, PGE2 values were converted to log scale prior to doing t-tests.
as §2, §3
The efficacy of a monoclonal antibody (mAb) against human IL-6 in inhibition of proteoglycan degradation, NO production and PGE2 synthesis on human ARC tissues stimulated with IL-6 was also tested. Human ARC tissue were treated with 12.5, 25 and 250 ng/ml of IL-6 mAb diluted into chondrocyte stimulation medium. After one hour of treatment at 37° C., ARCs were stimulated with or without 25 ng/ml IL-6, 250 ng/ml IL-6 soluble receptor (IL-6SR) or IL-6 (25 ng/ml)+L-6SR (250 ng/ml) and incubated for five days before the culture media were harvested for assays.

[5] = test system: human tumor xenograft models; test: Human tumor xenograft models; assay type: in vivo; conditions: single agent
CDK1 = CDK1 (Homo sapiens, UniProt P06493); test: CDK1 inhibition; assay type: biochemical
[6] = test system: bovine chondrocyte pellets / ARC tissues stimulated with IL-1β; test: Chondrocyte pellet / ARC culture model: GAG degradation assay; assay type: cell-based; conditions: at 5 μM, 7.5 ng/ml IL-1, five days
chondrocytes = assay type: cell-based
Protocol: The LDH activity was determined calorimetrically in an enzymatic test based on the conversion of lactic acid to pyruvate in the presence of chromagenic substrate tetrazolium salt INT that was reduced to formazan.

[7] = test system: bovine chondrocyte pellets / ARC tissues stimulated with IL-1β; test: Chondrocyte pellet / ARC culture model: GAG degradation assay; assay type: cell-based; conditions: Bos taurus, Chondrocyte; at 5 μM; read-out: GAG Release (inhibition), Pellet Assay
From the text: A chondrocyte pellet culture model was developed for in vitro high throughput screening of therapeutic compounds for inhibition of IL-1β-stimulated matrix degradation. The chondrocyte pellet culture model can be used to detect various potential therapeutic compounds effective in blocking different processes caused by IL-1β stimulation. For example, IL-1β stimulation results in increased glycosaminoglycan (GAG) degradation, prostaglandin E2 (PGE2) synthesis and total nitrite/nitrate production. Compounds with different mechanisms of action may inhibit the increase of one or two or all three of these parameters. For this reason, screening by, for example, measuring only GAG release would be limited to detection of a specific class of inhibitors and may not detect compounds with diversified mechanisms of function which may be involved in inhibition of the IL-1 stimulated inflammatory process. The development of the chondrocyte pellet culture assay system in a 96-well plate made possible large-scale screening of potential therapeutic compounds with different mechanisms of action.
(§6) Calf articular cartilage was obtained from the knee joints of eight to twelve month old animals and was processed within twenty-four hours after sacrifice. After removal of muscle and ligament, the cartilage was kept moist using phosphate buffer solution (PBS) to prevent tissue dehydration, and was aseptically peeled off from subchondral bone with a scalpel, and the cartilage pieces were further minced into smaller pieces (˜0.3-0.5×˜0.2-0.5 cm cubes). […] Chondrocytes were then enzymatically isolated from the tissue by incubation for overnight at 37° C. with gentle agitation in 0.2% collagenase in Dulbecco's modified eagle media (DMEM). After removal of tissue debris by filtration through cell strainer and the residual collagenase by 3× wash in PBS, cells were finally resuspended at a density of 2.5×10^6 cells/ml in chondrocyte medium. A 1 ml aliquot of the cell suspension was dispensed into either a 15 ml Falcon centrifuge tube or a 96 deep-well plate and centrifuged at 2000×g for five minutes. The chondrocyte pellets were incubated at 37° C. in a humidified atmosphere of 5% CO2 for two to three weeks with a medium change every other day.
(§7) As an alternative to using calf articular cartilage, a commercial Aliginate Recovered Chondrocytes (ARC) system was also used (Articular Engineering, LLC (Northbrook, Ill.)). Use of the commercial system cut down on labor and time in producing chondrocyte pellet. This system produced cartilaginous tissue in vitro using bovine chondrocytes. The first step consisted of culturing chondrocytes in alginate under conditions optimal for the formation of a cell-associated matrix (CM). The second step allowed these cells with their CM, after recovery, to rapidly form and become integrated into a solid mass of cartilage on a porous insert within two weeks.
This tissue is rich in cells surrounded by a cell-associated matrix that is degraded rapidly when the cells are exposed to IL-1. ARC tissues in 3 mm punches at delivery were first dispensed into a 96 deep-well plate, one punch per well, for compound treatment. The subsequent procedures were the same as those used for the chondrocyte pellets.
(§8) Chondrocyte pellets were washed once with 1 ml of Chondrocyte Stimulation Medium and equilibrated in the same medium at room temperature for fifteen to thirty minutes. Compounds were dissolved in H2O, Ethanol or dimethyl sulfoxide (DMSO) (10^−2 M) according to suppliers' instructions and further diluted with Chondrocyte Stimulation Medium to the required concentrations. DMSO concentrations in the culture media should not exceed 1%; this concentration of DMSO has no effect on cartilage proteoglycan metabolism in response to cytokines.
The pellets were first treated with compounds at desired concentrations at 37° C. for one hour and then incubated for three to five days in the absence or presence of 10 ng/ml of IL-1β. […]

[8] = test system: IL-1β-stimulated NO production in bovine chondrocyte pellets / ARC tissues; test: Chondrocyte pellet / ARC culture model: total nitrite and nitrate assay; assay type: cell-based; conditions: at 5 μM
From the text: as §6, §7, §8
(§9) The pellets were first treated with compounds at desired concentrations at 37° C. for one hour and then incubated for three to five days in the absence or presence of 10 ng/ml of IL-1β. At the end of the incubation, media and pellets were harvested and frozen for further analysis. Pellets were also fixed as needed in 4% (w/v) paraformaldehyde in PBS for histology analysis.
as §1
(§10) To characterize the relative efficacies among different p38 MAP kinase inhibitors, dose-response curves were generated for both PGE2 and NO assays. […] After one hour of treatment, ARCs were stimulated with or without 7.5 ng/ml IL-1β and continued to incubate for five days before assay. […]

Water solubility = assay type: physicochemical
[9] = test system: IL-1β-stimulated PGE2 synthesis in bovine chondrocyte pellets / ARC tissues; test: Chondrocyte pellet / ARC culture model: Prostaglandin E2 assay; assay type: cell-based
From the text: as §6, §7, §8, §9, §5
as §10, with “assay. The IL-1β-stimulated PGE2 synthesis or NO production was first calculated by subtraction of PGE2/NO levels in the absence of IL-1β from that in the presence of IL-1β.” for “assay.”

human cancer cell lines = test: Cell proliferation in culture; assay type: cell-based
[10] = test system: aggrecan and collagen type 2 mRNA in bovine AF and NP cells; test: 3D in vitro disc cell model: Taqman gene expression; assay type: cell-based; conditions: 10 ng/ml IL-1β; inhibitor 1 μM, rhGDF-5 200 ng/ml
From the text: (§11) Three-dimensional in vitro annulus fibrosis (AF) and nucleus pulposus (NP) models were established to investigate proteoglycan modulation and changes in gene expression in response to inflammatory cytokines such as interleukin-1 (e.g., IL-1β) and potential therapeutic agents such as growth and differentiation factor (GDF-5), and p38 MAP kinase inhibitors. AF and NP cells from bovine caudal discs were isolated by enzymatic digestion and seeded (2×10^6 cells/cm^2) onto Millipore CM filters coated with Collagen Type II and cultured in DMEM/20% heat-inactivated FBS, 100 ug/ml ascorbic acid and 5 ng/ml TGFβ1. […] Results were evaluated by histology (Tol. Blue staining was used to observe matrix production). Dimethylmethylene blue (DMMB) was used to detect sulphated glycosaminoglycans in a GAG/DNA assay. Taqman analysis was performed on aggrecans (AGG), collagen type 1 (col-1), collagen type 2 (col-2), and MMP 3, MMP 9 and MMP 13. In FIGS. 19A-C and 20A-C, annulus fibrosus and nucleus pulposus cells from bovine caudal discs were isolated by enzymatic digestion and seeded (2×10^6 cells/cm2) onto Millipore CM filters coated with Collagen Type II and cultured in DMEM/20% heat-inactivated FBS/100 ug/ml ascorbic acid and 5 ng/ml TGF-β1.

[11] = test system: annulus fibrosus and nucleus pulposus cells from bovine caudal discs treated with IL-1β; test: 3D in vitro disc cell model: GAG (DMMB); assay type: cell-based; conditions: 10 ng/ml IL-1β; inhibitor 1 μM, rhGDF-5 200 ng/ml
From the text: as §11

[12] = 10 ng/ml TNFα, four or five days
[13] = at 1 ng/ml, TNFα stimulated responses

Sequence of CDK1 (P06493 whole entry, species assumed): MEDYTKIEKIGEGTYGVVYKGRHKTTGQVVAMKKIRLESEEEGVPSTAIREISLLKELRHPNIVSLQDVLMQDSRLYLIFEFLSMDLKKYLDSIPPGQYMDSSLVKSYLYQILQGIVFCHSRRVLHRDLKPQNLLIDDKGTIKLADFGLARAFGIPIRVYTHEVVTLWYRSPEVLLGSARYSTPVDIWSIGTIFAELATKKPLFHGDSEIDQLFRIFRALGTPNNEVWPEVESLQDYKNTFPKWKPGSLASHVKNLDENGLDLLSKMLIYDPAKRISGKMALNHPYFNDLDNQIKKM
Sequence of CDK1 (P14635 whole entry partner, species assumed): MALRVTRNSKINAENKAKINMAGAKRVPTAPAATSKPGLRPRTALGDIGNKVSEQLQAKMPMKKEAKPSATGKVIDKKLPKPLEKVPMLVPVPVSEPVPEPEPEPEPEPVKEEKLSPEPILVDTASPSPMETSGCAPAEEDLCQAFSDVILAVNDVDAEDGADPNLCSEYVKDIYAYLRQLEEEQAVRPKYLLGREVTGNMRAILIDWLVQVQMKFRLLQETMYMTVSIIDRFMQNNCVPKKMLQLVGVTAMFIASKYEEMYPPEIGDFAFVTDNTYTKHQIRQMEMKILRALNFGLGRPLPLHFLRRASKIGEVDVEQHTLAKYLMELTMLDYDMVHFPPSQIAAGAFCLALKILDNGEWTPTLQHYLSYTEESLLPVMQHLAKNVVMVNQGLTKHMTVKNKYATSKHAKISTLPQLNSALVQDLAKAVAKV

## REMICADE®: monoclonal antibody against human TNFα
[1]; 5 ng/ml IL-1β
  IL-1β stimulated responses: NO production (in words): little effect
[1]; [12]
  TNFα-induced NO production (in words): strongly inhibited
[1]; [13]
  NO Inhibition, Pellet Assay: 100% at
[2]; 5 ng/ml IL-1β
  IL-1β stimulated responses: GAG release (in words): little effect
[2]; [12]
  TNFα-induced GAG release (in words): strongly inhibited
[2]; [13]
  GAG Release (inhibition), Pellet Assay: 100% at 1 ng/ml
[3]
  half-life when administered systemically: about 1 week
[4]; 5 ng/ml IL-1β
  IL-1β stimulated responses: PGE2 synthesis (in words): little effect
[4]; [12]
  TNFα-induced PGE2 synthesis (in words): strongly inhibited
[4]; at 1 ng/ml
  PGE2 Inhibition, Pellet Assay: 50% at 1 ng/ml
[4]; at 10 ng/ml
  PGE2 Inhibition, Pellet Assay: 100% at

## Nc1nc(Nc2ccc(S(N)(=O)=O)cc2)nn1C(=O)c1c(F)cccc1F [JNJ 7706621, 4-[5-Amino-1-(2,6-difluoro-benzoyl)-1H-[1,2,4]triazol-3-ylamino]-benzenesulfonamide]
[5]
  antitumor activity (in words): single agent antitumor activity
CDK1
  IC50: 9 nM
[6]
  GAG release (in words): completely blocked
chondrocytes
  cytotoxicity to chondrocytes, LDH (in words): little toxicity
[7]
  inhibition at 5 µM: 100%
[8]; Bos taurus, Chondrocyte
  inhibition at 5 µM: 100%
[8]; ARC tissues, 7.5 ng/ml IL-1, five days
  NO production (in words): completely blocked
Water solubility; at pH 7.4
  solubility: 17 µg/mL (≈ 43.1 µM)
Water solubility; water, simulated gastric fluid, at pH 2, read-out: solubility
  solubility: 6 µg/mL (≈ 15.2 µM)
[9]; Table 3B
  PGE2 Inhibition, Pellet Assay (in words): No effect
[9]; at 5 μM, ARC tissues, 7.5 ng/ml IL-1, five days
  PGE2 synthesis (in words): little effect
Human cancer cell lines
  cell cycle effects (in words): induced G2M arrest, endoreduplication and apoptosis
Human cancer cell lines; Homo sapiens, in 9 cell lines, read-out: inhibits cell proliferation in culture, IC50
  IC50: 337 ± 123 nM

B1: rhGDF-5: growth and differentiation factor, member of the BMP family and TGF-beta superfamily (protein, UniProt P43026 382-501, looked up)
Growth/differentiation factor …: APLATRQGKRPSKNLKARCSRKALHVNFKDMGWDDWIIAPLEYEAFHCEGLCEFPLRSHLEPTNHAVIQTLMNSMDPESTPPTCCVPTRLSPISILFIDSANNVVYKQYEDMVVESCGCR
[10]
  gene expression of Agg and Col 2 (in words): restored
[11]
  amount of GAG in the tissue (in words): restored
